According to ChEMBL document CHEMBL1201862, “PubChem BioAssay data set” (2004):
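48-hour exposure; five concentrations; linearly interpolated endpoints. GI50 is the concentration that inhibits growth by half.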 Activity calls are given as the source filed them. Rule as the data show it: active = GI50 up to about 1.1 µM and inactive = higher.

Experiments:
Assay in all cases: DTP human tumour cell line panel, 48 h
SF-295 = system: SF-295
RXF 393 = system: RXF 393
LOX IMVI = system: LOX IMVI
OVCAR-5 = system: OVCAR-5
UACC-62 = system: UACC-62
RPMI-8226 = system: RPMI-8226
HCT-15 = system: HCT-15
SK-MEL-28 = system: SK-MEL-28
SF-539 = system: SF-539
NCI-H460 = system: NCI-H460
CAKI-1 = system: CAKI-1
HOP-62 = system: HOP-62
MDA-MB-231 = system: MDA-MB-231
SNB-75 = system: SNB-75
ACHN = system: ACHN
A549 = system: A549
Hs-578T = system: Hs-578T
DU-145 = system: DU-145
786-0 = system: 786-0
NCI-H226 = system: NCI-H226
NCI-H522 = system: NCI-H522
T47D = system: T47D
UACC-257 = system: UACC-257
UO-31 = system: UO-31
U-251 = system: U-251
TK-10 = system: TK-10
NCI-H23 = system: NCI-H23
MOLT-4 = system: MOLT-4
SK-MEL-2 = system: SK-MEL-2
OVCAR-4 = system: OVCAR-4
SW-620 = system: SW-620
HOP-92 = system: HOP-92
SNB-19 = system: SNB-19
SN12C = system: SN12C
NCI/ADR-RES = system: NCI/ADR-RES
SK-MEL-5 = system: SK-MEL-5
SF-268 = system: SF-268
SR = system: SR
IGROV-1 = system: IGROV-1
K562 = system: K562
HCT-116 = system: HCT-116
OVCAR-3 = system: OVCAR-3
CCRF-CEM = system: CCRF-CEM
HCC 2998 = system: HCC 2998
HT-29 = system: HT-29
PC-3 = system: PC-3
HL-60 = system: HL-60
MDA-MB-435 = system: MDA-MB-435
Malme-3M = system: Malme-3M
MCF7 = system: MCF7
EKVX = system: EKVX
A498 = system: A498
OVCAR-8 = system: OVCAR-8
SK-OV-3 = system: SK-OV-3
BT-549 = system: BT-549
COLO 205 = system: COLO 205
KM12 = system: KM12
MDA-N = system: MDA-N
M14 = system: M14

O=C1/C(=C/c2ccc(O)cc2)CCc2ccc([N+](=O)[O-])cc21
GI50 (SF-295): 63.1 µM (inactive) | GI50 (RXF 393): 33.3 µM (inactive) | GI50 (LOX IMVI): > 100 µM (inactive) | GI50 (OVCAR-5): > 51.5 µM (inactive) | GI50 (UACC-62): > 74.3 µM (inactive) | GI50 (RPMI-8226): 2.07 µM (inactive) | GI50 (HCT-15): > 100 µM | GI50 (SK-MEL-28): > 100 µM (inactive) | GI50 (SF-539): > 90.6 µM (inactive) | GI50 (NCI-H460): 45.9 µM (inactive) | GI50 (CAKI-1): > 82.6 µM (inactive) | GI50 (HOP-62): 73.5 µM (inactive) | GI50 (MDA-MB-231): > 100 µM (inactive) | GI50 (SNB-75): 53.2 µM (inactive) | GI50 (ACHN): > 81.3 µM (inactive) | GI50 (A549): 45 µM (inactive) | GI50 (Hs-578T): 35.9 µM (inactive) | GI50 (DU-145): 55.3 µM (inactive) | GI50 (786-0): > 80.5 µM (inactive) | GI50 (NCI-H226): 28.7 µM (inactive) | GI50 (NCI-H522): 2.65 µM (inactive) | GI50 (T47D): 68.7 µM (inactive) | GI50 (UACC-257): 97.7 µM (inactive) | GI50 (UO-31): 23 µM (inactive) | GI50 (U-251): 60.4 µM (inactive) | GI50 (TK-10): 45.2 µM (inactive) | GI50 (NCI-H23): 36.1 µM (inactive) | GI50 (MOLT-4): 3.63 µM (inactive) | GI50 (SK-MEL-2): 66.5 µM (inactive) | GI50 (OVCAR-4): > 90.6 µM (inactive) | GI50 (SW-620): > 100 µM (inactive) | GI50 (HOP-92): 29.1 µM (inactive) | GI50 (SNB-19): 39.1 µM (inactive) | GI50 (SN12C): > 100 µM (inactive) | GI50 (NCI/ADR-RES): 73.5 µM (inactive) | GI50 (SK-MEL-5): > 81.8 µM (inactive) | GI50 (SF-268): > 61.7 µM (inactive) | GI50 (SR): 1.63 µM (inactive) | GI50 (IGROV-1): 61.2 µM (inactive) | GI50 (K562): > 100 µM (inactive) | GI50 (HCT-116): 75.5 µM (inactive) | GI50 (OVCAR-3): > 78.2 µM (inactive) | GI50 (CCRF-CEM): 0.419 µM (active) | GI50 (HCC 2998): > 100 µM (inactive) | GI50 (HT-29): > 100 µM (inactive) | GI50 (PC-3): > 100 µM (inactive) | GI50 (HL-60): 5.5 µM (inactive) | GI50 (MDA-MB-435): > 100 µM (inactive) | GI50 (Malme-3M): 98.2 µM (inactive) | GI50 (MCF7): > 33.3 µM (inactive) | GI50 (EKVX): > 89.5 µM (inactive) | GI50 (A498): 34.6 µM (inactive) | GI50 (OVCAR-8): > 100 µM (inactive) | GI50 (SK-OV-3): > 84.7 µM (inactive) | GI50 (BT-549): 31.3 µM (inactive) | GI50 (COLO 205): > 100 µM (inactive) | GI50 (KM12): > 76 µM (inactive) | GI50 (MDA-N): > 100 µM (inactive) | GI50 (M14): > 100 µM (inactive)

Clc1ccc2oc(CCc3ccccc3)nc2c1
GI50 (SF-295): 33.6 µM (inactive) | GI50 (RXF 393): 24.9 µM (inactive) | GI50 (LOX IMVI): > 100 µM (inactive) | GI50 (OVCAR-5): 83.2 µM (inactive) | GI50 (UACC-62): > 100 µM (inactive) | GI50 (RPMI-8226): 46.1 µM (inactive) | GI50 (HCT-15): 38.5 µM | GI50 (SK-MEL-28): 72.3 µM (inactive) | GI50 (SF-539): > 100 µM (inactive) | GI50 (NCI-H460): 59.2 µM (inactive) | GI50 (CAKI-1): 38.2 µM (inactive) | GI50 (HOP-62): > 100 µM (inactive) | GI50 (MDA-MB-231): > 100 µM (inactive) | GI50 (SNB-75): 17.8 µM (inactive) | GI50 (ACHN): 47.2 µM (inactive) | GI50 (A549): 36.6 µM (inactive) | GI50 (Hs-578T): > 100 µM (inactive) | GI50 (DU-145): 48.1 µM (inactive) | GI50 (786-0): 53.8 µM (inactive) | GI50 (NCI-H226): 32.6 µM (inactive) | GI50 (NCI-H522): 35.6 µM (inactive) | GI50 (T47D): 20.5 µM (inactive) | GI50 (UACC-257): 42.4 µM (inactive) | GI50 (UO-31): 62.7 µM (inactive) | GI50 (U-251): 37.2 µM (inactive) | GI50 (TK-10): 69.7 µM (inactive) | GI50 (NCI-H23): 45.8 µM (inactive) | GI50 (MOLT-4): 35.4 µM (inactive) | GI50 (SK-MEL-2): 30.6 µM (inactive) | GI50 (OVCAR-4): 52 µM (inactive) | GI50 (SW-620): 49.4 µM (inactive) | GI50 (HOP-92): 49.4 µM (inactive) | GI50 (SNB-19): 91.6 µM (inactive) | GI50 (SN12C): 66.1 µM (inactive) | GI50 (NCI/ADR-RES): 40.8 µM (inactive) | GI50 (SK-MEL-5): 20.3 µM (inactive) | GI50 (SF-268): 87.9 µM (inactive) | GI50 (SR): 57.3 µM (inactive) | GI50 (IGROV-1): 51.3 µM (inactive) | GI50 (K562): 49.9 µM (inactive) | GI50 (HCT-116): 36.2 µM (inactive) | GI50 (OVCAR-3): 21.3 µM (inactive) | GI50 (CCRF-CEM): 29.8 µM (inactive) | GI50 (HCC 2998): 27.4 µM (inactive) | GI50 (HT-29): 33.4 µM (inactive) | GI50 (PC-3): 48.6 µM (inactive) | GI50 (HL-60): 34.7 µM (inactive) | GI50 (MDA-MB-435): 44.2 µM (inactive) | GI50 (Malme-3M): > 100 µM (inactive) | GI50 (MCF7): 38 µM (inactive) | GI50 (EKVX): 32.5 µM (inactive) | GI50 (A498): 26.3 µM (inactive) | GI50 (OVCAR-8): 78.9 µM (inactive) | GI50 (SK-OV-3): 47.2 µM (inactive) | GI50 (BT-549): 49.5 µM (inactive) | GI50 (COLO 205): 41.7 µM (inactive) | GI50 (KM12): 37.3 µM (inactive) | GI50 (MDA-N): 50.1 µM (inactive) | GI50 (M14): 59.8 µM (inactive)
